Reference: patent publication US8669361B2, “Pyrazol-4-yl-heterocyclyl-carboxamide compounds and methods of use” (Genentech, Inc., priority 2010, dated 2014)

Columns and labels:
[1] = target: PIM3 (Homo sapiens (Human), UniProt Q86V86); experiment: Pim kinase binding activity, Caliper LC3000 microfluidic peptide phosphorylation assay (Example 901); format: biochemical; conditions: 55 pM PIM3, 1 μM FAM-peptide, 10 μM ATP, 90 minutes at room temperature; read-out: PIM3 LC3K (KI)
Experimental: (§1) PIM-1, -2, and -3 enzymes were generated as fusion proteins expressed in bacteria and purified by IMAC column chromatography (Sun, X., Chiu, J. F., and He, Q. Y. (2005) Expert Rev. Proteomics, 2:649-657). A fluorescent-labeled Pim-specific peptide substrate, was custom synthesized by American Peptide Company (Sunnyvale, Calif.). Reaction Buffer contained 10 mM HEPES, pH 7.2, 10 mM MgCl2, 0.01% Tween 20, 2 mM DTT. Termination Buffer contained 190 mM HEPES, pH 7.2, 0.015% Brij-35, 0.2% Coating Reagent 3 (Caliper Life Sciences, Hopkinton, Mass.), 20 mM EDTA. Separation Buffer contained 100 mM HEPES, pH 7.2, 0.015% Brij-35, 0.1% Coating Reagent 3, 1:200 Coating Reagent 8 (Caliper Life Sciences, Hopkinton, Mass.), 10 mM EDTA and 5% DMSO.
(§2) PIM reactions were carried out in a final volume of 10 μL per well in a 384-well plate. A standard enzymatic reaction, initiated by the addition of 5 μL 2×ATP and test compound to 5 μL of 2× enzyme and FAM-peptide, contained 20 pM PIM1, 50 pM PIM2, or 55 pM PIM3, 1 μM FAM-peptide, and 10 μM ATP, in Reaction Buffer. After 90 minutes of incubation at room temperature, the phosphorylation reaction was stopped by the addition of 10 μL Termination Buffer. The product and substrate in each independent reaction were separated on a 12-sipper microfluidic chip (Caliper Life Sciences, Hopkinton, Mass.) run on a Caliper LC3000® (Caliper Life Sciences, Hopkinton, Mass.). The separation of product and substrate was optimized by choosing voltages and pressure using Caliper's Optimizer software (Hopkinton, Mass.). The separation conditions used a downstream voltage of −500V, an upstream voltage of −2150V, and a screening pressure of −1.2 psi. The product and substrate fluorophore were excited at 488 nm and detected at 530 nm. Substrate conversion was calculated from the electropherogram using HTS Well Analyzer software (Caliper Life Sciences, Hopkinton, Mass.). Ki values for the test compound were calculated.

[2] = target: PIM1 (Homo sapiens (Human), UniProt P11309); experiment: as above; format: biochemical; conditions: 20 pM PIM1, 1 μM FAM-peptide, 10 μM ATP, 90 minutes at room temperature; read-out: PIM1 LC3K (KI)
Sequence of PIM1 (P11309 whole entry): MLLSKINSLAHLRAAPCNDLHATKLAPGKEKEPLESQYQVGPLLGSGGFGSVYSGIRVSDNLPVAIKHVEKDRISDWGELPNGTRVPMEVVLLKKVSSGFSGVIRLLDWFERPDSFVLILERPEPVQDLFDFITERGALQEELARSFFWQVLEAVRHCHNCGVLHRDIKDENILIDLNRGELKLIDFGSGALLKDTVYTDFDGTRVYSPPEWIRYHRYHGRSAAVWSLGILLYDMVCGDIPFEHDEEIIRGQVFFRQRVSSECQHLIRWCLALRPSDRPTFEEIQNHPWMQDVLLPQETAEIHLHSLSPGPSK
Experimental: as §1, §2

[3] = target: PIM2 (Homo sapiens (Human), UniProt Q9P1W9); experiment: as above; format: biochemical; conditions: 50 pM PIM2, 1 μM FAM-peptide, 10 μM ATP, 90 minutes at room temperature; read-out: PIM2 LC3K (KI)
Sequence of PIM2 (Q9P1W9 whole entry, the tested form may be a part): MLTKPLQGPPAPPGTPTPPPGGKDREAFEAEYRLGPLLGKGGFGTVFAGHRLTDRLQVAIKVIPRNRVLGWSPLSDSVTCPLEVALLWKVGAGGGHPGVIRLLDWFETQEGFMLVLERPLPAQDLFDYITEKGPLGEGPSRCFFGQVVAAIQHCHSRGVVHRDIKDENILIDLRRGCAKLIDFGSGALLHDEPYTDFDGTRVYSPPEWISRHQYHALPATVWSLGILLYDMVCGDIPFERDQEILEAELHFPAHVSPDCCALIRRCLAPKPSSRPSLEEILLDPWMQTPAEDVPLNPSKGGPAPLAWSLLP
Experimental: as §1, with “A” for “PIM-1, -2, and -3 enzymes were generated as fusion proteins expressed in bacteria and purified by IMAC column chromatography (Sun, X., Chiu, J. F., and He, Q. Y. (2005) Expert Rev. Proteomics, 2:649-657). A”
as §2, with “A standard enzymatic reaction, initiated by the addition of 5 μL 2×ATP and test compound to 5 μL of 2× enzyme and FAM-peptide, contained 20 pM PIM1, 50 pM PIM2, or 55 pM PIM3, 1 μM FAM-peptide, and 10 μM ATP, in Reaction Buffer.” left out, “The product and substrate fluorophore were excited at 488 nm and detected at 530 nm.” left out

[4] = test system: MM1.S (multiple myeloma) cells; experiment: In vitro cell proliferation potency assay, Cell Titer Glo (Example 902); format: cell-based; conditions: Homo sapiens, incubated for 72 hours, read-out: Prolif MM1S ATP (EC50)
Experimental: (§3) BaF3 parental line was obtained from the DSMZ repository. BaF3 lines transfected with PIM 1 or PIM2 were generated. Mouse IL-3 was purchased from R&D Systems. G418 was purchased from Clontech. Media for BaF3 parental line contained RPMI, 10% FBS, 2 mM L-Glutamine, 2 ng/mL mIL-3. Media for BaF3 PIM1 & 2 lines contained RPMI, 10% FBS, 2 mM L-Glutamine, […]. Media for MM1.S (multiple myeloma cells) line contained RPMI, 10% FBS, 2 mM L-Glutamine.
(§4) BaF3, a murine interleukin-3 dependent pro-B cell line, parental cells, BaF3 PIM1 cells, BaF3 PIM2 cells, and MM1.S (multiple myeloma) cells were seeded at 2 k/well, 5 k/well, 5 k/well, and 10 k/well respectively, in a 384-well plate, at 45 μL/well. Test compound was added at 5 μL/well. BaF3 cells (parental and transfected) were incubated overnight, while MM1.S cells were incubated for 72 hours at 37° C., 5% CO2. Cell Titer Glo Reagent (Promega) was added at 50 μL/well, the plates were incubated for 30 minutes, and their luminescence read on an HT Analyst. IC50/EC50 values for the test compound were calculated.

[5] = test system: BaF3 PIM1 cells; experiment: as above; format: cell-based, murine; conditions: Mus musculus; BaF3 line transfected with PIM1, incubated overnight; read-out: Prolif BaF3 PIM1 (IC50)
Experimental: as §3, §4

[6] = test system: BaF3 parental cells; experiment: as above; format: cell-based, murine; conditions: Mus musculus; BaF3 parental line, medium with 2 ng/mL mIL-3, incubated overnight; read-out: Prolif BaF3 IL3 (IC50)
Experimental: as §3, §4

SMILES	Ki [1] [nM]	Ki [2] [nM]	Ki [3] [nM]	EC50 [4] [nM]	IC50 [5] [nM]	IC50 [6] [nM]
Cn1ncc(NC(=O)c2nc(-c3ccccc3F)ccc2N)c1N1CCC(N)CC1 [Example 110, 3-amino-N-(5-(4-aminopiperidin-1-yl)-1-methyl-1H-pyrazol-4-yl)-6-(2-fluorophenyl)picolinamide]				16100	1500	12000
Cn1ncc(NC(=O)c2nc(-c3ccccc3F)ccc2N)c1N1CCCC(N)CC1 (stereo not drawn) [Example 114, 3-amino-N-(5-(4-aminoazepan-1-yl)-1-methyl-1H-pyrazol-4-yl)-6-(2-fluorophenyl)picolinamide]	0.159	0.115	1.65		2300	5500
Cn1ncc(NC(=O)c2nc(-c3ccccc3F)cnc2N)c1N1CCC[C@H](N)C1 [Example 119, (S)-3-amino-N-(5-(3-aminopiperidin-1-yl)-1-methyl-1H-pyrazol-4-yl)-6-(2-fluorophenyl)pyrazine-2-carboxamide]	0.305		2.13		1300	5200
Cn1ncc(NC(=O)c2nc(-c3ccccc3F)cnc2N)c1N1CCC(N)CC1 [Example 122, 3-amino-N-(5-(4-aminopiperidin-1-yl)-1-methyl-1H-pyrazol-4-yl)-6-(2-fluorophenyl)pyrazine-2-carboxamide]	0.962	0.281	14.7		1100	11900
Cn1ncc(NC(=O)c2nc(-c3ccccc3F)ccc2N)c1N1CCC[C@H](CN)C1 [Example 129, (R)-3-amino-N-(5-(3-(aminomethyl)piperidin-1-yl)-1-methyl-1H-pyrazol-4-yl)-6-(2-fluorophenyl)picolinamide]	1.33	0.343	10.2		5100	21500
Cn1ncc(NC(=O)c2nc(-c3ccccc3F)ccc2N)c1N1CC[C@@H](CN)C1 [Example 134, (S)-3-amino-N-(5-(3-(aminomethyl)pyrrolidin-1-yl)-1-methyl-1H-pyrazol-4-yl)-6-(2-fluorophenyl)picolinamide]					1400	7800
Cn1ncc(NC(=O)c2nc(-c3ccccc3F)ccc2N)c1N1CC[C@H](CN)C1 [Example 136, (R)-3-amino-N-(5-(3-(aminomethyl)pyrrolidin-1-yl)-1-methyl-1H-pyrazol-4-yl)-6-(2-fluorophenyl)picolinamide]					634	5900
Cn1ncc(NC(=O)c2nc(-c3ccccc3F)cnc2N)c1N1CCC[C@@H](N)CC1 [Example 141, (R)-3-amino-N-(5-(4-aminoazepan-1-yl)-1-methyl-1H-pyrazol-4-yl)-6-(2-fluorophenyl)pyrazine-2-carboxamide]	0.295		3.52		219	1100
Cn1ncc(NC(=O)c2nc(-c3ccccc3F)cnc2N)c1N1CCC[C@H](N)CC1 [Example 143, (S)-3-amino-N-(5-(4-aminoazepan-1-yl)-1-methyl-1H-pyrazol-4-yl)-6-(2-fluorophenyl)pyrazine-2-carboxamide]					377	1100
Cn1ncc(NC(=O)c2nc(-c3ccccc3F)ccc2N)c1N1CCC[C@@H](N)CC1 [Example 145, (R)-3-amino-N-(5-(4-aminoazepan-1-yl)-1-methyl-1H-pyrazol-4-yl)-6-(2-fluorophenyl)picolinamide]					1000	3800

Now from value to compound, other results behind:

Ki [1] [nM]	Ki [2] [nM]	Ki [3] [nM]	EC50 [4] [nM]	IC50 [5] [nM]	SMILES	IC50 [6] [nM]
4.89	6.5	55.1	9100	7300	Nc1sc(-c2c(F)cccc2F)nc1C(=O)Nc1cn[nH]c1N1CCC[C@H](N)C1 [Example 103, (S)-5-amino-N-(5-(3-aminopiperidin-1-yl)-1H-pyrazol-4-yl)-2-(2,6-difluorophenyl)thiazole-4-carboxamide]	10600
			4200	3800	Cn1ncc(NC(=O)c2nc(-c3c(F)cccc3F)sc2N)c1N1CCC[C@H](N)C1 [Example 106, (S)-5-amino-N-(5-(3-aminopiperidin-1-yl)-1-methyl-1H-pyrazol-4-yl)-2-(2,6-difluorophenyl)thiazole-4-carboxamide]	6600
			8200	615	Cn1ncc(NC(=O)c2nc(-c3c(F)cccc3F)sc2N)c1N1CCC(N)CC1 [Example 108, 5-amino-N-(5-(4-aminopiperidin-1-yl)-1-methyl-1H-pyrazol-4-yl)-2-(2,6-difluorophenyl)thiazole-4-carboxamide]	4300
			7100	4200	Cn1ncc(NC(=O)c2nc(-c3ccccc3F)ccc2N)c1N1CCC[C@H](N)C1 [Example 111, (S)-3-amino-N-(5-(3-aminopiperidin-1-yl)-1-methyl-1H-pyrazol-4-yl)-6-(2-fluorophenyl)picolinamide]	13200
1.08	1.14	46.1		4500	Cn1ncc(NC(=O)c2nc(-c3c(F)cccc3F)sc2N)c1OCC1CCNCC1 [Example 115, 5-amino-2-(2,6-difluorophenyl)-N-(1-methyl-5-(piperidin-4-ylmethoxy)-1H-pyrazol-4-yl)thiazole-4-carboxamide]	6200
1.1	1.97			7800	Cn1ncc(NC(=O)c2nc(-c3c(F)cccc3F)sc2N)c1OC1CCNCC1 [Example 120, 5-amino-2-(2,6-difluorophenyl)-N-(1-methyl-5-(piperidin-4-yloxy)-1H-pyrazol-4-yl)thiazole-4-carboxamide]	25000
0.344	0.506	10.6		660	Cn1ncc(NC(=O)c2nc(-c3c(F)cccc3F)sc2N)c1N1CC[C@H](CN)C1 [Example 135, (R)-5-amino-N-(5-(3-(aminomethyl)pyrrolidin-1-yl)-1-methyl-1H-pyrazol-4-yl)-2-(2,6-difluorophenyl)thiazole-4-carboxamide]	9300
